Assay results published in patent publication US20230286973A1, “PROTEIN SECRETION INHIBITORS” (KEZAR LIFE SCIENCES, priority 2020, published 2023).
Like-named read-outs stand apart in the source and are kept apart here.

Experiments:
[1] = tested on: PD1-ss+10aa/Gaussia Luciferase; assay: Dox-Induced PD1-ss-Gluc Assay; format: cell-based; conditions: 24 hr Dox induction, 293FRT/TO cells, read-out: 24 hr Dox Inducible PD1ssGluc 293FRT/TO: Mean IC50
Summary of the method: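 Compounds were added in DMSO/media with doxycycline and incubated at 37 °C, 5% CO2, on 293 T-REx cells plated one day earlier. These cells stably express, under tetracycline-regulated control, a Gaussia luciferase fused to the PD1 signal peptide plus 10 residues. Structures drawn without stereochemistry were tested as stereoisomer mixtures.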

[2] = tested on: TNFα-FL/Gaussia Luciferase; assay: Dox Induced TNFα-FL-Gluc Assay; format: cell-based; conditions: for IC50: 24 hr Dox induction, 293FRT/TO cells, read-out: 24 hr Dox Inducible TNFaFLGluc 293FRT/TO: Mean IC50; for 24 hr Dox Inducible TNFaFLGluc 293FRT/TO: TNF/PD1: ratio of TNFaFLGluc IC50 to PD1ssGluc IC50
Summary of the method: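 Hygromycin/blasticidin-selected Flp-In 293 T-REx cells, TNFα-FL/Gaussia luciferase fusion under T-REx control; overnight plating, then compound in DMSO/media with doxycycline at 37 °C, 5% CO2; stereo-undefined structures tested as mixtures.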

[3] = tested on: HER3-ss+4aa/Gaussia Luciferase; assay: Dox-Induced Her3-ss-Gluc Assay; format: cell-based; conditions: 24 hr Dox induction, 293FRT/TO cells, read-out: 24 hr Dox Inducible Her3(ss + 4)Gluc 293FRT/TO: Mean IC50
Summary of the method: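 Doxycycline-inducible HER3 signal sequence+4aa/Gaussia luciferase construct, stably integrated in Flp-In 293 T-REx cells; compound dilutions applied with doxycycline at 37° C., 5% CO2.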

[4] = tested on: IL-2-FL/Gaussia Luciferase; assay: Dox Induced IL2-FL-Gluc Assay; format: cell-based; conditions: for IC50: 24 hr Dox induction, 293FRT/TO cells, read-out: 24 hr Dox Inducible IL2FLGluc 293FRT/TO: Mean IC50; for 24 hr Dox Inducible IL2FLGluc 293FRT/TO: IL2/PD1: ratio of IL2FLGluc IC50 to PD1ssGluc IC50
Summary of the method: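 A hygromycin- and blasticidin-resistant 293 T-REx clone carrying inducible IL-2–Gaussia luciferase (full-length IL-2, residues 1-153) serves as the cell system. After overnight plating, the cells get test compounds together with doxycycline in DMSO/media and are incubated at 37° C, 5% CO2.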

[5] = tested on: multiple myeloma cell line NCI-H929; assay: H929 Cell Viability Assay; format: cell-based, human; conditions: Homo sapiens, NCI-H929, 48 h, NCI-H929 cells, Celltiter-Glo
Summary of the method: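 A 48-hour compound treatment of cells in 10% FBS RPMI medium was followed by luciferase-based viability quantification.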

[6] = tested on: multiple myeloma cell line U266B1; assay: U266 Cell Viability Assay; format: cell-based, human; conditions: Homo sapiens, U-266, 48 h, U266B1 cells, Celltiter-Glo
Summary of the method: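 After growth in serum-supplemented RPMI 1640, cells received serially diluted compound in DMSO/media and were kept 48 hours before a CellTiter-Glo luminescence readout.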

[7] = Liver Microsome Stability Assay (rat); conditions: rat liver microsomes, with NADPH, 1.0 uM compound
Protocol: (§1) Stability of a compound was assessed in the presence of liver microsomes from various sources—mouse, rat, monkey and human liver microsomes. 1.0 uM compound, 0.4% DMSO in 0.1 M Potassium Phosphate with 1.0 mg/mL liver microsomes, were incubated at 37° C. with or without 1 mM NADPH. The samples were quenched at 0, and 30 minutes.

[8] = Liver Microsome Stability Assay (mouse); conditions: mouse liver microsomes, with NADPH, 1.0 uM compound
Protocol: as §1

[9] = Liver Microsome Stability Assay (human); conditions: human liver microsomes, with NADPH, 1.0 uM compound
Protocol: as §1

[10] = Liver Microsome Stability Assay (monkey); conditions: monkey liver microsomes, with NADPH, 1.0 uM compound
Protocol: as §1

[11] = '<=>' given where both are I.A.

SMILES | IC50 [1] [µM] | IC50 [2] [µM] | 24 hr Dox Inducible TNFaFLGluc 293FRT/TO: TNF/PD1 [2] | IC50 [3] [µM] | IC50 [4] [µM] | 24 hr Dox Inducible IL2FLGluc 293FRT/TO: IL2/PD1 [4] | EC50 [5] [µM] | EC50 [6] [µM] | Liver Microsome Stability (Multiple Species): Rat - % Remaining after 30 min w/NADPH [7] [%] | Liver Microsome Stability (Multiple Species): Mouse - % Remaining after 30 min w/NADPH [8] [%] | Liver Microsome Stability (Multiple Species): Human - % Remaining after 30 min w/NADPH [9] [%] | Liver Microsome Stability (Multiple Species): Monkey - % Remaining after 30 min w/NADPH [10] [%] | IC50 ([1]; mean) [µM] | IC50 ([2]; mean) [µM] | 24 hr Dox Inducible TNFaFLGluc 293FRT/TO: TNF/PD1 [2, 11] | IC50 ([3]; mean) [µM] | IC50 ([4]; mean) [µM] | 24 hr Dox Inducible IL2FLGluc 293FRT/TO: IL2/PD1 [4, 11]
Cc1coc(/C=C/c2csc(NC(=O)c3cccn3Cc3ccncc3)n2)n1 [Compound B41, (E)-N-(4-(2-(4-methyloxazol-2-yl)vinyl)thiazol-2-yl)-1-(pyridin-4-ylmethyl)-1H-pyrrole-2-carboxamide] | 0.398 | > 25 | >62.8 | 3.63 | > 16.6 | >42 | > 25 | > 25 | 0.15 | 0.36 | 0.18 | 0.44 | – | – | – | – | – | –
COCc1ccc(N2CCC[C@@H]2c2csc(NC(=O)c3cccn3Cc3ccncc3)n2)cc1 [Compound A48, (R)-N-(4-(1-(4-(methoxymethyl)phenyl)pyrrolidin-2-yl)thiazol-2-yl)-1-(pyridin-4-ylmethyl)-1H-pyrrole-2-carboxamide] | 0.00613 | 0.101 | 16.4 | 0.0174 | 0.0135 | 2.2 | 0.15 | > 25 | 0.64 | 4.71 | 2.91 | 1.44 | – | – | – | – | – | –
O=C(Nc1nc([C@H]2CCCN2c2ccccc2)cs1)c1cccn1CCCc1cccnc1 [Compound E10, (R)-N-(4-(1-phenylpyrrolidin-2-yl)thiazol-2-yl)-1-(3-(pyridin-3-yl)propyl)-1H-pyrrole-2-carboxamide] | – | – | – | – | – | – | > 25 | > 25 | 0.39 | 0.46 | 0.37 | 0.06 | 5.76 | > 25 | >4.34 | 4.93 | 5.41 | 0.94
CCOC(=O)C(C)n1cnc(/C=C/c2csc(NC(=O)c3cccn3Cc3ccnc(F)c3)n2)c1C (stereo not drawn) [Compound B119, ethyl (E)-2-(4-(2-(2-(1-((2-fluoropyridin-4-yl)methyl)-1H-pyrrole-2-carboxamido)thiazol-4-yl)vinyl)-5-methyl-1H-imidazol-1-yl)propanoate] | – | – | – | – | – | – | 13.1 | 15.6 | 0.7 | 2.37 | 0.15 | 0.1 | 0.0511 | 21.3 | 418 | 8.9 | 10.1 | 200
O=C(Nc1nc([C@H]2CCCN2c2ccccc2)cs1)c1cccn1Cc1ccc(F)cc1 [Compound C119, (R)-1-(4-fluorobenzyl)-N-(4-(1-phenylpyrrolidin-2-yl)thiazol-2-yl)-1H-pyrrole-2-carboxamide] | – | – | – | – | – | – | > 25 | > 25 | 49.6 | 42.4 | 61.3 | 23.4 | 2.12 | > 25 | >11.8 | 1.51 | 1.62 | 0.76
O=C(Nc1nc(CC2CCCCO2)cs1)c1cccn1Cc1ccncc1 (stereo not drawn) [Compound E9, 1-(pyridin-4-ylmethyl)-N-(4-((tetrahydro-2H-pyran-2-yl)methyl)thiazol-2-yl)-1H-pyrrole-2-carboxamide] | – | – | – | – | – | – | > 25 | > 25 | 4.69 | 19 | 0.86 | 2.42 | 0.775 | 19.5 | 25.1 | 3.92 | 3.64 | 4.7
CC(=O)Nc1ccc(N2CCC[C@@H]2c2csc(NC(=O)c3cccn3Cc3ccnc(F)c3)n2)cc1 [Compound A68, (R)-N-(4-(1-(4-acetamidophenyl)pyrrolidin-2-yl)thiazol-2-yl)-1-((2-fluoropyridin-4-yl)methyl)-1H-pyrrole-2-carboxamide] | 0.00232 | 0.0441 | 19 | 0.00498 | 0.00604 | 2.6 | 0.0446 | > 25 | 16.9 | 27.5 | 25.8 | 11.8 | – | – | – | – | – | –
O=C(Nc1nc(/C=C/c2ccon2)cs1)c1cccn1Cc1ccncc1 [Compound B5, (E)-N-(4-(2-(isoxazol-3-yl)vinyl)thiazol-2-yl)-1-(pyridin-4-ylmethyl)-1H-pyrrole-2-carboxamide] | 2.16 | > 25 | >11.6 | > 25 | > 25 | 12 | > 25 | > 25 | 0.69 | 1.26 | 0.87 | 0.47 | – | – | – | – | – | –
COc1ccc(O[C@H]2CCC[C@H](c3csc(NC(=O)c4cccn4Cc4ccncc4)n3)C2)nc1 [Compound E41, N-(4-((1S,3S)-3-((5-methoxypyridin-2-yl)oxy)cyclohexyl)thiazol-2-yl)-1-(pyridin-4-ylmethyl)-1H-pyrrole-2-carboxamide] | – | – | – | – | – | – | 7.74 | 14.4 | 0.61 | 0.41 | 0.33 | 0.34 | 0.301 | 1.56 | 5.2 | 0.57 | 0.538 | 1.8
